Measurements from patent US7101701B2, “Method to reduce contamination when culturing mycobacteria” (The Trustees of the University of Pennsylvania, priority 2004, dated 2006).
Where no end group is shown, it is not given here.

How the values were obtained:
MAP ATCC# 700535 = test: MGIT 960 liquid culture of MAP isolate dilutions, time to positive; type: cell-based, Mycobacterium avium subsp. paratuberculosis; conditions: for TTP (days): 600 ul EY
Protocol: (§1) Middlebrook 7H9 broth was prepared by suspending 4.7 grams Middlebrook 7H9 dehydrated base (BD Diagnostics, Sparks, Md.) in 900 ml of double distilled water. The solution was autoclaved for 20 minutes at 121° C., and stored in a refrigerator when not in use. A 50% egg yolk suspension was stored in a refrigerator. Nisin was prepared in 1–2 M hydrochloride acid (HCl) at a concentration of 100 mg/ml. ANV cocktail (5 mg/ml) was prepared from the individual antibiotics and stored frozen.
Dilutions of MAP ATCC# 700535 were prepared as follows. A working stock vial, at 10^−2, stored at −70° C. freezer, was thawed in a 37° C. incubator. Using individually-wrapped, sterile glass pipettes, a serial dilution series was made in sterile 15 ml conical tubes. One (1) ml of MAP at 10^−2 was diluted into 9 ml of 7H9 medium and mixed well to yield a 10^−3 solution. One ml of this solution was diluted into another tube of 9 ml 7H9 to yield a 10^−4 solution. This process was repeated again to produce a 10^−5 solution. The serial dilutions were plated on HEYM flasks, 100 ul dilution per flask, and placed in an incubator.
(§2) Cultures were set up in MGIT™ tubes (BD Diagnostics, Sparks, Md.). MGIT™ tubes contain an oxygen-sensitive fluorescent compound, tris 4,7-diphenyl-1,10-phenanthroline ruthenium chloride pentahydrate, in silicone base that detects growth by increased fluorescence as oxygen consumption in the culture increases. The tubes were barcoded for scanning in a BACTEC™ MGIT™ 960 machine (BD Diagnostics, Sparks, Md.).
(§3) Vials of nisin and ANV, stored in a standard freezer, were thawed in a 37° C. incubator. Egg yolk, OADC or OACC (BD Diagnostics, Sparks, Md.) and 7H9, stored in a standard refrigerator, were warmed in a 37° C. incubator. Using sterile pipet tips (autoclaved), components were aliquoted into barcoded MGIT™ culture tubes as follows: OADC or OACC (800 μl); 50% egg yolk suspension (600 μl except for […] control tubes having 60 μl. The volume difference in volume made up by 7H9); 7H9; 5 mg/ml ANV (30 μl); 100 mg/ml nisin (quantity determined by desired final concentration); and organism sample (100 μl). 7H9 was added at the quantity needed to bring the final volume of each tube to 8.9 ml, so that the tubes had identical head space. After all components were added, tubes were tightly capped and inverted three times. The tubes were placed in the MGIT™ 960 machine and scanned in after they registered as unknown at the next hourly reading.
(§4) The experiment was designed to test a MAP isolate (ATCC# 700535) at three different concentrations (MAP 10^−3, MAP 10^−4 and MAP 10^−5). Three field samples (processed fecal matter) named Annabelle, Heidi and Meck 42 were also tested in the experiment. Seven conditions were tested for effectiveness against bacterial contamination in mycobacterial cultures: ANV alone, five different nisin concentrations and HCl, the diluent for nisin. Generally, each sample was tested in triplicate for each solution. There were eleven additional control tubes; two tubes for additives (5 μl nisin and 30 μl ANV) and 9 tubes for weekly performance (no ANV and 60 μl 50% egg yolk suspension; WP). The WP tubes were used to monitor test performance and reproducibility over time.

Acid Fast bacillus = test: Acid fast smears (Ziehl-Neelson) of culture tubes; type: cell-based, Mycobacterium avium subsp. paratuberculosis; conditions: for Acid Fast Results or CFUs: per replicate tube
Source text: One of the most distinctive properties of Mycobacteria is the impermeability of their lipid-rich cell walls to various basic dyes, unless the dye is combined with phenol. Once stained, the cells resist decolorization with acidified organic solvents, and are, therefore called “acid fast.” Acid fast staining methods include, but are not limited to, Ziehl-Neelsen (ZN) carbolfuchsin staining, fluorochrome staining (auromine O and rhodamine B) and Kinyoun carbolfuchsin staining.

[1] = tested on: bacterial contamination and MAP in processed fecal field samples (Annabelle, Heidi, Meck 42); test: MGIT 960 liquid culture of processed fecal field samples, time to positive / contamination; type: cell-based, Mycobacterium avium subsp. paratuberculosis; conditions: for TTP (days): 50000 ug nisin per tube, 1 tube only
Protocol: as §1
Vials of processed fecal field samples, Annabelle, Heide and Meck 42, stored at −70° C., were thawed in a 37° C. incubator. The samples had been previously processed according to the Cornell modified decontamination and inoculation method as described in Whitlock et al., supra (2000).
as §2, §3, §4

at least some strains = conditions: when used with at least some strains; cited from earlier work
chymotrypsin = conditions: Pep5 variant; cited from earlier work
[2] = Meck and Annabelle samples, tubes 4F and 7F (10000 ug nisin)

nisin (ITSISLCTPGCKTGALMGCNMKTATCHCSIHVSK; cysteine pairing not given here; also: lantibiotic lanthionine modifications not placed; UniProt P13068 24-57, looked up) [34 amino acid pentacyclic class A lantibiotic peptide produced by Lactococcus lactis; stock 100 mg/ml in HCl]
TTP (days) (MAP ATCC# 700535; MAP 10^−4, 500 ug nisin per tube, three replicate tubes): 19.3–20.6–No gu's | TTP (days) (MAP ATCC# 700535; MAP 10^−4, 50000 ug nisin per tube): No gu's | TTP (days) (MAP ATCC# 700535; MAP 10^−5, 5000 ug nisin per tube, three replicate tubes): 32.4–38.7–2 gu's | reduction of TTP compared to 30 ul ANV (MAP ATCC# 700535; nisin at 10,000 ug/tube, tubes 3A and 3F (MAP 10^−5)): approximately 30% | inhibitory effect on MAP growth (MAP ATCC# 700535; nisin with 600 ul EY): little inhibitory effect on MAP growth | Acid Fast Results or CFUs (Acid Fast bacillus; Annabelle field sample, 10000 ug nisin per tube): 4+Pos–4+Pos–ND | Acid Fast Results or CFUs (Acid Fast bacillus; Heidi field sample, 500 ug nisin per tube): 4+Pos–4+Pos–ND | Acid Fast Results or CFUs (Acid Fast bacillus; Heidi field sample, 1000 ug nisin per tube): 4+Pos–4+Pos–ND | Acid Fast Results or CFUs (Acid Fast bacillus; Heidi field sample, 5000 ug nisin per tube): 4+Pos–3+Pos–ND | Acid Fast Results or CFUs (Acid Fast bacillus; Heidi field sample, 10000 ug nisin per tube): 4+Pos–ND–ND | Acid Fast Results or CFUs (Acid Fast bacillus; MAP 10^−3, 10000 ug nisin per tube): 4+Pos–4+Pos–ND | Acid Fast Results or CFUs (Acid Fast bacillus; Meck 42 field sample, 1000 ug nisin per tube): ND–ND–4+Pos | Acid Fast Results or CFUs (Acid Fast bacillus; Meck 42 field sample, 5000 ug nisin per tube): BC–4+Pos–4+Pos | Acid Fast Results or CFUs (Acid Fast bacillus; Meck 42 field sample, 10000 ug nisin per tube): ND–4+Pos–4+Pos | AFB (acid-fast bacilli smears) (Acid Fast bacillus; [2]): 4+Positive | time to recover TNTC animals ([1]; 600 ul 50% egg yolk suspension, nisin approximately 5000 to 10,000 ug per tube): < 15 days | TTP (days) ([1]; Annabelle field sample): 43.7 (1 tube only) days | TTP (days) ([1]; Heidi field sample): No gu's (1 tube only) | TTP (days) ([1]; Meck 42 field sample): 54.4 (1 tube only) days | time at which tubes flagged positive [1, 2]: 14 to 17 days | control of non-mycobacterial contamination and MAP growth ([1]; field samples, particularly at 10,000 ug nisin): controlled non-mycobacterial contamination with little retardation of MAP growth

L6V gallidermin: gallidermin variant from the literature (IASKFVCTPGCAKTGSFNSYCC; cysteine pairing not given here; also: lantibiotic lanthionine modifications not placed; UniProt P21838 31-52, looked up, variant L6V)
antibacterial activity (at least some strains): enhanced antibacterial activity

A19C Pep5: Pep5 variant from the literature (TAGPAIRASVKQCQKTLKCTRLFTVSCKGKNGCK; also: lantibiotic Pep5: thioether rings and dehydro residues not placed; UniProt P19578 27-60, looked up, variant A19C)
stability to chymotrypsin (chymotrypsin): more stable to chymotrypsin
